# From PMC4062389, “LASSBio-1135: A Dual TRPV1 Antagonist and Anti-TNF-Alpha Compound Orally Effective in Models of Inflammatory and Neuropathic Pain” (PLoS ONE, 2014)
# Molecular target: TRPV1 (Rattus norvegicus, UniProt O35433)
# Assay: two-electrode voltage clamp in Xenopus oocytes injected with rat TRPV1 cRNA; inhibition of […] capsaicin current
# Assay type: cell-based
# Chain of TRPV1 (O35433 whole entry): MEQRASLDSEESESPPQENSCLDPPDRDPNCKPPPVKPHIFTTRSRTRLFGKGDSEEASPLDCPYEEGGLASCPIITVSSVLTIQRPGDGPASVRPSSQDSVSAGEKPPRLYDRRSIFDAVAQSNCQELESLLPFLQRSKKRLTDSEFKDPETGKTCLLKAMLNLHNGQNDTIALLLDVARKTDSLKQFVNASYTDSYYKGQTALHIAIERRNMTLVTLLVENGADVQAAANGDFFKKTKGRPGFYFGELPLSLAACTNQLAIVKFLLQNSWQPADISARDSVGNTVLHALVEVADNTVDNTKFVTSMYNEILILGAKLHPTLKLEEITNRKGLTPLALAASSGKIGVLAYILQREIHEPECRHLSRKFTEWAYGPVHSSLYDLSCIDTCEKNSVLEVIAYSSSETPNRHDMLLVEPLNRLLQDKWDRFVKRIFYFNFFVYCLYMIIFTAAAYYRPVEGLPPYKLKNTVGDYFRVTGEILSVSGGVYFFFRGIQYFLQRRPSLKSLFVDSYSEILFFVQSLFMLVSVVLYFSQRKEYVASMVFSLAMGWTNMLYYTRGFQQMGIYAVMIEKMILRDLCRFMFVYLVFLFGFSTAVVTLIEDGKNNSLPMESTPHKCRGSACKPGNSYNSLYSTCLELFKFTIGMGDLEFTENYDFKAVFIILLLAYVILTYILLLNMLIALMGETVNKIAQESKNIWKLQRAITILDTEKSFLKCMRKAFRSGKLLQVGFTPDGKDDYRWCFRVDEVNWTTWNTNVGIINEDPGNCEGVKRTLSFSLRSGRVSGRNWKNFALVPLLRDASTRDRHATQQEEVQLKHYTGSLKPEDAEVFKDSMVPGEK
substance,measurement,value
LASSBio-1135,IC50,0.58 µM
